Laboratory results as given in patent US12668599B2, “Heterobifunctional compounds and methods of treating disease” (Halda Therapeutics OpCo, Inc., priority 2023, dated 2026).

Key:
[1] = molecular target: T1, androgen receptor and BRD4 protein (Homo sapiens, UniProt O60885+P10275); assay: Tumor TR-FRET trimer assay on tumors of the PK/PD Castrate VCaP model; format: in vivo, CB17.SCID mice; conditions: PK/PD Castrate VCaP Tumor Xenograft Model
T1 construct: Tumors obtained from the Castrate VCaP Model were lysed; from tissue; host or cells: VCaP tumour xenografts grown in castrated CB17.SCID mice
T1 sequence (P10275 whole entry, other chains not shown): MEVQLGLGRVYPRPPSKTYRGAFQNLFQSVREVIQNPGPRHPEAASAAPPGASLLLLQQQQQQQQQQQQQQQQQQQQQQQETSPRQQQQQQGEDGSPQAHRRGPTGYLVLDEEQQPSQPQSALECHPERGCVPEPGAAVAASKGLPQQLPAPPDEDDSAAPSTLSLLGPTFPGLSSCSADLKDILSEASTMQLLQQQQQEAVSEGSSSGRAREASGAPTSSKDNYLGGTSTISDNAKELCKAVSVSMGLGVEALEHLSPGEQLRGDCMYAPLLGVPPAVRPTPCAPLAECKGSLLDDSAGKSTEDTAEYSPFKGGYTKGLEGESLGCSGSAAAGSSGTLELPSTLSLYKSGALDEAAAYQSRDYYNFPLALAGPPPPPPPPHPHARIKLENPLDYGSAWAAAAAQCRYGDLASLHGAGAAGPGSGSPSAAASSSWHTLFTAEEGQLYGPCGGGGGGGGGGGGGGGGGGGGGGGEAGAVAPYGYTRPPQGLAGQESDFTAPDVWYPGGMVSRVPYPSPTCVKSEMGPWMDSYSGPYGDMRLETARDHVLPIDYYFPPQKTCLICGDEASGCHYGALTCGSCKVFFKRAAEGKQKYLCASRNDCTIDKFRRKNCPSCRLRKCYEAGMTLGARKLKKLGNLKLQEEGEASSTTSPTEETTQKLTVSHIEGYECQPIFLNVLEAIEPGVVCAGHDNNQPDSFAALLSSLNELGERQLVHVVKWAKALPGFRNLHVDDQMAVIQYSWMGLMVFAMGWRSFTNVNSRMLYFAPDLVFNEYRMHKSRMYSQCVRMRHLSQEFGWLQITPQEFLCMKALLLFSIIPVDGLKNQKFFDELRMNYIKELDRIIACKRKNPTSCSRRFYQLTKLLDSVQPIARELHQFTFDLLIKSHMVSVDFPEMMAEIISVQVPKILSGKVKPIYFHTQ
Description: 5M VCaP cells were subcutaneously implanted into CB17.SCID mice in 50% Matrigel (Corning). Mice were castrated under anesthesia once tumor volumes reached 100 mm^3. Tumors were then allowed to reach an average of approximately 150 mm^3 before randomization into efficacy arms. Tumors were measured twice weekly for Tumor Growth Inhibition (TGI) calculation. For PK/PD analysis, tumors were allowed to reach an average of 400 mm^3, before dosing the mice with test compound by oral gavage (n=5) for seven days. Mice were sacrificed 24 hours following the final dose, and tumors were harvested for downstream analysis. Plasma samples were collected from all dosed mice 2 hours following the final dose to determine test compound exposure by LC-MS/MS. […] the United States Food and Drug Administration for treatment of prostate cancer ([…]).
Tumors obtained from the Castrate VCaP Model were lysed in Cell Signaling Technology lysis buffer supplemented with protease/phosphatase inhibitors and nuclease. Each tumor was lysed in 10 μL of lysis buffer per mg of tumor and placed in a TissueLyser for 4 minutes at 20 Hz. Each sample was spun down at 16000×g for 10 minutes, the supernatant was removed, and a BCA assay was run to quantify the total protein concentration in each sample. In a white opaque 384 well plate each sample was diluted in supplemented CST lysis buffer to 48 and 24 μg of protein in a total volume of 16 μL. 4 μL of a 1:1 mixture of anti-androgen receptor and anti-BRD4 antibodies with donor and acceptor fluorophores were mixed into each well containing tumor samples. The plate was spun down at 300×g for one minute, placed on a plate shaker at 400 RPM for 10 minutes, spun down at 300×g for one minute, then sealed with a plate seal and stored overnight. Approximately 16 hours after adding antibodies, the plate was read on an Envision plate reader. The ratiometric value of each well was calculated by dividing the acceptor signal by the donor signal and multiplying by 10,000.

T47D cells = assay: Cellular growth inhibition assay for T47D cells (CellTiter-Glo 2.0, 72 hours); format: cell-based, human; conditions: Homo sapiens, T47D, 72 h
Description: Exemplary compounds were tested for ability to inhibit the proliferation of T47D cells. T47D cells are a commercially available human breast cancer cell line.
T47D cells were purchased from American Type Cell Culture (ATCC Cat #HTB-133) and then seeded on poly-D-lysine coated, black clear-bottom 384-well plates at 3000/well in 25 μL Dulbecco's Modified Eagle Medium (DMEM) supplemented with 10% w/w Fetal bovine serum (FBS), 0.2 units/mL recombinant human insulin (Gibco Cat #12585014), and 1% w/w Pen-Strep. Pen-Strep is a commercially available mixture of penicillin G and streptomycin, which is used in mammalian cell culture media to prevent bacterial contamination. Dulbecco's Modified Eagle Medium (DMEM) supplemented with 10% w/w fetal bovine serum (FBS), 0.2 units/mL recombinant human insulin, and 1% w/w Pen-Strep is herein referred to as Treatment Medium. Following seeding of cells in the plates, the plates were spun at 300×g for 30 seconds, then equilibrated to room temperature for 30 minutes, and then deposited in a humidified tissue culture incubator maintained at 37° C. with 5% CO2.
At 24 hours after seeding of the cells, dilutions of test compound were prepared in DMSO and dissolved in Treatment Medium, to achieve a final DMSO concentration of 0.5% w/w, thereby providing the Test Compound Solution. A 25 μL aliquot of the Test Compound Solution was added to cells in the well plates. An equal volume of a solution containing DMSO and Treatment Medium was used as a negative control. Following treatment of cells with Test Compound Solution or said equal volume of a solution containing DMSO and Treatment Medium, the plates were spun at 300×g for 30 seconds, and then left in an incubator for 72 hours.
At the end of the treatment duration, cell viability was quantified with CellTiter-Glo 2.0 reagent (Promega Cat #G9243). For this purpose, plates were equilibrated to room temperature for 30 minutes, and then 25 μL of CellTiter-Glo 2.0 reagent was added to cells in the plate wells. Plates were then agitated on a shaker for two minutes at 500 rpm and subsequently incubated at room temperature for 10 minutes. Following incubation, the plates were spun at 3000×g for 30 seconds, then sealed with an optical adhesive cover, and luminescence readings were measured with an En Vision Plate Reader (Perkin Elmer).
Data was normalized using zero luminescence for baseline. A four-parameter non-linear regression curve fit was applied to dose-response data in GraphPad Prism data analysis software to determine the half-maximal growth inhibitory concentration (GI50) for each test compound.

SMILES: COc1cc(O[C@H]2C(C)(C)[C@H](NC(=O)c3cnc(N4CCC5(CC4)CC(Oc4ccc(C6=N[C@@H](Cc7ncco7)c7nnc(C)n7-c7sc(C)c(C)c76)cc4)C5)nc3)C2(C)C)ccc1C#N [II-5, N-[(1r,3r)-3-(4-cyano-3-methoxy-phenoxy)-2,2,4,4-tetramethyl-cyclobutyl]-2-[2-[4-[(9S)-4,5,13-trimethyl-9-(oxazol-2-ylmethyl)-3-thia-1,8,11,12-tetrazatricyclo[8.3.0.0^2,6]trideca-2 (6),4,7,10,12-pentaen-7-yl]phenoxy]-7-azaspiro[3.5]nonan-7-yl]pyrimidine-5-carboxamide]
- ternary complex formation between compound, androgen receptor, and BRD4 protein in tumors ([1]; oral gavage for seven days, varying doses, FIG. 4): observed
- ternary complex formation between compound, androgen receptor, and BRD4 protein in tumors ([1]; Compound II-5 and Compound B at the same dose and dosing frequency, FIG. 20): observed
- GI50 (T47D cells): < 500 nM
